Series [1] concerns tomato. Description: Experimental Example 2: Efficacy test on tomato using oil based formulation (reddening grade). The series is classed as in vivo. As to conditions: 1.0 mM oil-based formulation, individual tomatoes n=4. The text has this:
(§1) At this time, the tops of tomatoes most early turned red, while the bottoms thereof most lately turned red. For this reason, in order to accurately evaluate the difference in reddening, the coloring evaluated was based on the area of red color, rather than the color of tomatoes. […] Accordingly, the grade level is proportional to the rate at which the tomatoes ripened.
As illustrated in Example 1, in situ, in accordance with the methods of Preparation Examples 15, 16, 17, 18 and 22, five agents (1.0 mmol) such as 1-(2-phenylethyl)cyclopropene, 1-(3-phenylpropyl)cyclopropene, 1-(4-phenylbutyl)cyclopropene, 1-(5-phenylpentyl)cyclopropene and 1-hexylcyclopropene were prepared, 5.0 ml of xylene and 5.0 ml of water were added to the reaction solution, vigorously stirred for 5 minutes and stood. When the mixture was separated into an organic layer (upper layer) and an aqueous layer (lower layer), only the organic layer was collected and the aqueous layer was discarded. […] of hexane was added to the organic layer and homogeneously mixed to prepare a 1.0 mM oil-based formulation.
The tomatoes were screened in the same manner as in Experimental Example 1 and divided into 7 groups (n=4) including a non-treated group, a control group (solvent-treated group) and 5 agent groups. Tomatoes were treated with the previously prepared agent using a household sprayer such that the surface thereof was saturated. The tomatoes were stood at room temperature (25-30° C.) for 3 days and a reddening level thereof was evaluated based on grades of 0 to 5.

In series [2] the test system is tomato. Description: Experimental Example 1: Efficacy test on tomato using emulsion (reddening grade). The class given is in vivo. As to conditions: individual tomatoes n=4. How it is done:
In situ, a 1.0 mM 1-octylcyclopropene formulation was prepared using (trans)-1-octyl-1-(methanesulfonyloxy)-2-(trimethylsilyl)cyclopropane of Preparation Example 10 in the same manner as in Example 7. This solution was diluted to 1 to 100 times prior to use, as necessary. Experimental Example 1: Efficacy test on tomato using emulsion 1.0 mM formulations of five agents such as 1-(2-phenylethyl)cyclopropene, 1-(3-phenylpropyl)cyclopropene, 1-(4-phenylbutyl)cyclopropene, 1-(5-phenylpentyl)cyclopropene and 1-hexylcyclopropene were prepared in the same manner as in Example 1, and 1.0 mM and 100 μM solutions were prepared therefrom. Then, the effects of the solutions were compared with non-treated groups and control groups in which a surfactant or a stabilizing agent (sodium dodecylbenzenesulfonate or tristyrenylphenykethoxy)12ethanol) is dissolved.
Tomatoes whose top end began to turn pink were screened, harvested and divided into 12 groups (n=4) in total, i.e., non-treated groups, control groups (surfactant) and agent groups with different concentrations such as 100 μM and 1.0 mM. Tomatoes were treated with the prepared agent formulation using a household sprayer such that the surface thereof was saturated. The tomatoes were stood at room temperature (25-30° C.) for 3 days and a reddening level thereof was evaluated based on grades of 0 to 5.
as §1

Series [3] can be described thus: Relative chemical stability of cyclopropenes measured by 1H-NMR. The class given is physicochemical. A digest of the protocol: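 Compounds in CDCl3 NMR tubes stored at −20° C. or room temperature and followed by 1H-NMR. Integrals of characteristic 1-alkylcyclopropene peaks (4–6.5 ppm, 1H; 0.8–0.9 ppm, 2H) compared against 1,1,3,3-tetramethylurea internal standard (2.80 ppm); stability expressed relative to chain-length-1 analogue.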

The source of these data is US9072293B2, “Cyclopropenes and method for applying cyclopropenes to agricultural products or crops” (Erum Biotechnologies Inc., priority 2010, dated 2015).

Where “and” joins values, the source holds several entries; their conditions need not be identical. Equal values may be shown once. Bounds are passed on as bounds.

As for `C1=C(CCCCc2ccccc2)C1` [(4-Phenylbutyl), 1-(4-phenylbutyl)cyclopropene], the “Tomato results: reddening level (grade 0 to 5)” value is 0 (an area in which the surface of tomato was colored in pink was 10% or less) (2×) and 1 (an area in which the surface of tomato was completely colored in red was 10 to 40%) and 2 (an area in which the surface of tomato was completely colored in red was 40 to 70%) in the series with tomato [1] (Day 0, room temperature (25-30° C.)); 0 (an area in which the surface of tomato was colored in pink was 10% or less) (2×) and 1 (an area in which the surface of tomato was completely colored in red was 10 to 40%) and 2 (an area in which the surface of tomato was completely colored in red was 40 to 70%) in the series with tomato [1] (Day 1, room temperature (25-30° C.)); 0 (an area in which the surface of tomato was colored in pink was 10% or less) (2×) and 1 (an area in which the surface of tomato was completely colored in red was 10 to 40%) and 3 (an area in which the surface of tomato was completely colored in red was 70% or more and the bottom area remained green) with tomato [1] (Day 2, room temperature (25-30° C.)); 1 (an area in which the surface of tomato was completely colored in red was 10 to 40%) and 0 (an area in which the surface of tomato was colored in pink was 10% or less) and 2 (an area in which the surface of tomato was completely colored in red was 40 to 70%) and 4 in the series on tomato [1] (Day 3, room temperature (25-30° C.)). The “reddening level (grade 0 to 5)” value was 0 (an area in which the surface of tomato was colored in pink was 10% or less) (2×) and 1 (an area in which the surface of tomato was completely colored in red was 10 to 40%) and 2 (an area in which the surface of tomato was completely colored in red was 40 to 70%) in the series on tomato [2] (100 μM, Day 0, room temperature (25-30° C.)); 0 (an area in which the surface of tomato was colored in pink was 10% or less) (2×) and 1 (an area in which the surface of tomato was completely colored in red was 10 to 40%) and 2 (an area in which the surface of tomato was completely colored in red was 40 to 70%) with tomato [2] (100 μM, Day 1, room temperature (25-30° C.)); 1 (an area in which the surface of tomato was completely colored in red was 10 to 40%) (2×) and 2 (an area in which the surface of tomato was completely colored in red was 40 to 70%) and 3 (an area in which the surface of tomato was completely colored in red was 70% or more and the bottom area remained green) in the series with tomato [2] (100 μM, Day 2, room temperature (25-30° C.)); 2 (an area in which the surface of tomato was completely colored in red was 40 to 70%) (2×) and 3 (an area in which the surface of tomato was completely colored in red was 70% or more and the bottom area remained green) and 4 with tomato [2] (100 μM, Day 3, room temperature (25-30° C.)); 0 (an area in which the surface of tomato was colored in pink was 10% or less) (2×) and 1 (an area in which the surface of tomato was completely colored in red was 10 to 40%) and 2 (an area in which the surface of tomato was completely colored in red was 40 to 70%) with tomato [2] (1.0 mM, Day 0, room temperature (25-30° C.)); 0 (an area in which the surface of tomato was colored in pink was 10% or less) (2×) and 1 (an area in which the surface of tomato was completely colored in red was 10 to 40%) and 2 (an area in which the surface of tomato was completely colored in red was 40 to 70%) with tomato [2] (1.0 mM, Day 1, room temperature (25-30° C.)). The “reddening level (grade 0 to 5)” value was 0 (an area in which the surface of tomato was colored in pink was 10% or less) (2×) and 1 (an area in which the surface of tomato was completely colored in red was 10 to 40%) and 3 (an area in which the surface of tomato was completely colored in red was 70% or more and the bottom area remained green) with tomato [2] (1.0 mM, Day 2, room temperature (25-30° C.)); 1 (an area in which the surface of tomato was completely colored in red was 10 to 40%) (2×) and 2 (an area in which the surface of tomato was completely colored in red was 40 to 70%) and 3 (an area in which the surface of tomato was completely colored in red was 70% or more and the bottom area remained green) in the series on tomato [2] (1.0 mM, Day 3, room temperature (25-30° C.)). Also, in series [3], the “chemical stability (in words)” value is recorded as “much more stable”. Moreover, in series [3] (1H-NMR, CDCl3, stored at −20° C. or room temperature, relative to chain length 1), the “Stability (relative chemical stability, based on cyclopropenes having a chain length of 1)” value is reported as >>10.
